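Grown in 96-well plates, cells were treated for 48 hours with each compound at five concentrations. Insufficient inhibition: endpoint recorded as highest concentration tested. The concentration for 50% growth inhibition is given as GI50.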 Active and inactive are the calls of the source. Cut-off read from the data, not from the text of the source: active = GI50 up to about 1.1 µM and inactive = higher.
Assays:
Assay in all cases: NCI anticancer screen, dose series, 48 h
RXF 393 = tested on: RXF 393
SF-268 = tested on: SF-268
COLO 205 = tested on: COLO 205
A549 = tested on: A549
A498 = tested on: A498
OVCAR-4 = tested on: OVCAR-4
SNB-75 = tested on: SNB-75
SF-539 = tested on: SF-539
786-0 = tested on: 786-0
U-251 = tested on: U-251
NCI-H226 = tested on: NCI-H226
MDA-MB-435 = tested on: MDA-MB-435
CAKI-1 = tested on: CAKI-1
MDA-N = tested on: MDA-N
UO-31 = tested on: UO-31
OVCAR-3 = tested on: OVCAR-3
OVCAR-5 = tested on: OVCAR-5
UACC-257 = tested on: UACC-257
HT-29 = tested on: HT-29
Hs-578T = tested on: Hs-578T
NCI-H23 = tested on: NCI-H23
SW-620 = tested on: SW-620
SK-OV-3 = tested on: SK-OV-3
UACC-62 = tested on: UACC-62
ACHN = tested on: ACHN
MDA-MB-231 = tested on: MDA-MB-231
HCT-116 = tested on: HCT-116
SN12C = tested on: SN12C
HCT-15 = tested on: HCT-15
MCF7 = tested on: MCF7
SNB-19 = tested on: SNB-19
K562 = tested on: K562
DU-145 = tested on: DU-145
EKVX = tested on: EKVX
SR = tested on: SR
HCC 2998 = tested on: HCC 2998
HOP-92 = tested on: HOP-92
RPMI-8226 = tested on: RPMI-8226
M14 = tested on: M14
IGROV-1 = tested on: IGROV-1
HL-60 = tested on: HL-60
LOX IMVI = tested on: LOX IMVI
KM12 = tested on: KM12
BT-549 = tested on: BT-549
SK-MEL-2 = tested on: SK-MEL-2
Malme-3M = tested on: Malme-3M
SK-MEL-5 = tested on: SK-MEL-5
MOLT-4 = tested on: MOLT-4
T47D = tested on: T47D
PC-3 = tested on: PC-3
OVCAR-8 = tested on: OVCAR-8
HOP-62 = tested on: HOP-62
NCI/ADR-RES = tested on: NCI/ADR-RES
NCI-H522 = tested on: NCI-H522
SF-295 = tested on: SF-295
TK-10 = tested on: TK-10
CCRF-CEM = tested on: CCRF-CEM

SMILES: CC(C)/C=N\n1c(N)c(C#N)c(C#N)c1C(C)C
- GI50 (RXF 393): 18.1 µM (inactive)
- GI50 (SF-268): 28.1 µM (inactive)
- GI50 (COLO 205): 18.7 µM (inactive)
- GI50 (A549): 25.2 µM (inactive)
- GI50 (A498): 17.5 µM (inactive)
- GI50 (OVCAR-4): 18.2 µM (inactive)
- GI50 (SNB-75): 4.67 µM (inactive)
- GI50 (SF-539): 18.9 µM (inactive)
- GI50 (786-0): 40.2 µM (inactive)
- GI50 (U-251): 28.9 µM (inactive)
- GI50 (NCI-H226): 14.7 µM (inactive)
- GI50 (MDA-MB-435): 31.3 µM (inactive)
- GI50 (CAKI-1): 20.5 µM (inactive)
- GI50 (MDA-N): 18.6 µM (inactive)
- GI50 (UO-31): 15.8 µM (inactive)
- GI50 (OVCAR-3): 11.7 µM (inactive)
- GI50 (OVCAR-5): 21.7 µM (inactive)
- GI50 (UACC-257): 14.7 µM (inactive)
- GI50 (HT-29): 33.3 µM (inactive)
- GI50 (Hs-578T): 20.4 µM (inactive)
- GI50 (NCI-H23): 24 µM (inactive)
- GI50 (SW-620): 38.1 µM (inactive)
- GI50 (SK-OV-3): 45.1 µM (inactive)
- GI50 (UACC-62): 12.3 µM (inactive)
- GI50 (ACHN): 20.3 µM (inactive)
- GI50 (MDA-MB-231): 19.4 µM (inactive)
- GI50 (HCT-116): 24.5 µM (inactive)
- GI50 (SN12C): 28.6 µM (inactive)
- GI50 (HCT-15): 24.3 µM
- GI50 (MCF7): 38.5 µM (inactive)
- GI50 (SNB-19): 34.9 µM (inactive)
- GI50 (K562): 24 µM (inactive)
- GI50 (DU-145): 35.6 µM (inactive)
- GI50 (EKVX): 20.4 µM (inactive)
- GI50 (SR): 0.951 µM (active)
- GI50 (HCC 2998): 13.4 µM (inactive)
- GI50 (HOP-92): 13 µM (inactive)
- GI50 (RPMI-8226): 14.6 µM (inactive)
- GI50 (M14): 22.2 µM (inactive)
- GI50 (IGROV-1): 18.3 µM (inactive)
- GI50 (HL-60): 26.1 µM (inactive)
- GI50 (LOX IMVI): 19 µM (inactive)
- GI50 (KM12): 27 µM (inactive)
- GI50 (BT-549): 24.2 µM (inactive)
- GI50 (SK-MEL-2): 18.2 µM (inactive)
- GI50 (Malme-3M): 22.8 µM (inactive)
- GI50 (SK-MEL-5): 15.7 µM (inactive)
- GI50 (MOLT-4): 13.5 µM (inactive)
- GI50 (T47D): 16.5 µM (inactive)
- GI50 (PC-3): 17.1 µM (inactive)
- GI50 (OVCAR-8): 20.3 µM (inactive)
- GI50 (HOP-62): 31.1 µM (inactive)
- GI50 (NCI/ADR-RES): 23.3 µM (inactive)
- GI50 (NCI-H522): 19.3 µM (inactive)
- GI50 (SF-295): 16.8 µM (inactive)
- GI50 (TK-10): 22.5 µM (inactive)
- GI50 (CCRF-CEM): 19.9 µM (inactive)

From ChEMBL document CHEMBL1201862, “PubChem BioAssay data set” (2004)
